Experimental data reported in PubChem BioAssay (NCI).
Several values for one entry are separate records, joined by “and”; a condition that tells them apart may be missing. Identical values can stand only once.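 Method: 48-hour compound exposure of cells in 96-well plates, five concentrations, linear interpolation of endpoints. GI50 is the concentration that inhibits growth by half. At the TGI there is no net growth.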

Assays:
Test in all cases: NCI-60 cell line screen, 48 h
SN12C renal = test system: SN12C renal
MALME-3M melanoma = test system: MALME-3M melanoma
HL-60(TB) leukemia = test system: HL-60(TB) leukemia
NCI-H522 lung = test system: NCI-H522 lung
K-562 leukemia = test system: K-562 leukemia
CCRF-CEM leukemia = test system: CCRF-CEM leukemia
HOP-92 NSCLC = test system: HOP-92 NSCLC
PC-3 prostate = test system: PC-3 prostate
BT-549 breast = test system: BT-549 breast
SK-MEL-28 melanoma = test system: SK-MEL-28 melanoma

Row | SMILES | TGI (SN12C renal) [µM] | TGI (MALME-3M melanoma) [µM] | TGI (HL-60(TB) leukemia) [µM] | TGI (NCI-H522 lung) [µM] | TGI (K-562 leukemia) [µM] | TGI (CCRF-CEM leukemia) | TGI (HOP-92 NSCLC) [µM] | TGI (PC-3 prostate) [µM] | TGI (BT-549 breast) [µM] | GI50 (SK-MEL-28 melanoma) [µM] | TGI (SK-MEL-28 melanoma) [µM] | GI50 (SN12C renal) [µM] | GI50 (MALME-3M melanoma) [µM] | GI50 (PC-3 prostate) [µM] | GI50 (NCI-H522 lung) [µM] | GI50 (K-562 leukemia) [µM] | GI50 (HOP-92 NSCLC) [µM] | GI50 (BT-549 breast) [µM] | GI50 (HL-60(TB) leukemia) [µM] | GI50 (CCRF-CEM leukemia) [µM]
1 | COC(=O)/C([Se]c1c(C)cc(C)cc1C)=C(/[Se]c1c(C)cc(C)cc1C)C(=O)OC | > 100 | > 100 | > 100 | > 100 | > 100 | > 100 µM | > 100 |  |  |  |  |  |  |  |  |  |  |  |  | 
2 | COc1cc2c(cc1OC)[C@H]1CN3CCC[C@H]3C=C1c1ccc(OC)c(O)c1-2 |  | 0.00179 |  | 0.000856 |  | 0.0376 µM and 0.35 µM | 0.000382 | 0.0269 | 0.206 |  |  |  |  |  |  |  |  |  |  | 
3 | COc1cc(/C=C\c2cc(OC)c(OC)c(OC)c2)cc(N/C=C\C(=O)c2c[nH]c3ccccc23)c1OC | 7.13 | 3.18 |  | 3.7 | > 100 |  | 4.5 | 18.6 | 3.38 | 1.86 | 3.79 | 2.44 | 1.27 | 3.44 | 1.76 | 1.54 | 1.5 | 1.64 |  | 
4 | C=Cc1ccc(C)[n+](C[Si](C)(C)O[Si](C)(C)C[n+]2cc(C=C)ccc2C)c1 | > 100 | > 100 | > 100 | > 100 | > 100 | > 100 µM | > 100 |  |  |  | > 100 |  |  |  |  |  |  |  |  | 
5 | Cc1ccc(C)c(N2C/C(=N\NC(=O)CC#N)C(c3nc4ccccc4s3)C(=O)C2=O)c1 (centres undefined) | > 100 | > 100 | > 100 | > 100 |  | > 100 µM | > 100 |  |  |  | > 100 |  |  |  |  |  |  |  |  | 
6 | Cc1[nH]c2ccccc2c1C1Cc2ccccc2N1C(=O)C#Cc1ccc([N+](=O)[O-])cc1 (centres undefined) | > 100 | > 100 | > 100 |  | > 100 | > 100 µM |  |  |  |  | > 100 |  |  |  |  |  |  |  |  | 
7 | CC1(C)CN=C(NN=C(/C=C/c2ccc(C(F)(F)F)cc2)/C=C/c2ccc(C(F)(F)F)cc2)NC1 | 3.33 | 3.78 | 4.35 | 2.57 |  | 4.17 µM | 2.54 |  | 3.46 | 1.64 | 3.25 | 1.46 | 1.86 |  | 1.25 |  | 1.1 | 1.74 | 2.03 | 1.12
8 | Cc1cc(Nc2nc(-c3cn(-c4ccc(Cl)cc4)nn3)nc3ccccc23)n[nH]1 | > 50 | 30.1 | > 50 | > 50 | > 50 | > 50 µM | > 50 |  | > 50 | 21.9 | > 50 | 10.7 | 10.8 |  | > 50 | 25.8 | 23.6 | 15 | 18.3 | 19.5
9 | O=C(Cc1nc2c3c(ccc2[nH]c1=O)C(=O)c1ccccc1C3=O)C(=O)Nc1ccccc1[N+](=O)[O-] |  | 36.6 | 43.7 | 18 | 37 | 11.6 µM | 38.5 |  |  |  | 30.3 |  |  |  |  |  |  |  |  | 
10 | COc1c(C)n(CCO)ccc1=O | > 100 | > 100 | > 100 | > 100 | > 100 | > 100 µM | > 100 |  |  |  | > 100 |  |  |  |  |  |  |  |  | 
11 | Cc1ccccc1C1=[N+]([O-])c2ccc(Cl)cc2C1=O | 28.5 | 30.6 | 6.22 | 23.9 | 24.1 | 12.5 µM | 28 |  |  |  | 35.9 |  |  |  |  |  |  |  |  | 
12 | O=C1CCCN1c1ccccc1I(=O)=O | > 100 | > 100 | > 100 | > 100 | > 100 | > 100 µM | > 100 |  | > 100 | > 100 | > 100 | > 100 | > 100 |  | > 100 | > 100 | > 100 | > 100 | > 100 | > 100
13 | CC1=C(C#N)C(=O)CC(c2ccc(Cl)cc2)N(C)N1 (centres undefined) | > 100 | > 100 | > 100 | > 100 |  |  | > 100 |  |  |  | > 100 |  |  |  |  |  |  |  |  | 
14 | Cc1cccc(C2=C/C(=C(\SS/C(C(=O)c3ccc(OCC(=O)O)c(Cl)c3Cl)=C3\C=C(c4cccc(C)c4)SS3)C(=O)c3ccc(OCC(=O)O)c(Cl)c3Cl)SS2)c1 | 65.1 | 74.9 | 4.71 | 8.14 | 36.2 | 19.4 µM | 23.1 |  |  |  | 87.4 |  |  |  |  |  |  |  |  | 
15 | O=c1[nH]cnc(NC2C=C(CO)C(O)C2O)c1[N+](=O)[O-] (centres undefined) | > 100 | > 100 | > 51.7 | > 100 | > 100 | > 100 µM | > 100 |  |  |  | > 100 |  |  |  |  |  |  |  |  | 
16 | COc1cc(/C=C2\[C@H]3c4c(c(OC)c(C)c(OC)c4OC)CC(C(=O)N2Cc2ccccc2)N3C)c(OC)c(C)c1OC | 33.1 | 47.3 | 36 | 30.2 | 62.1 | 42.5 µM | 49.9 |  |  |  | 64.2 |  |  |  |  |  |  |  |  | 
17 | Cc1cc2c(c(C(N)=O)c1C)-c1ccccc1C2=O | > 100 | > 100 | > 100 | > 100 | > 100 | > 100 µM | > 100 |  |  |  | > 100 |  |  |  |  |  |  |  |  | 
18 | CC(O)CCCOC(c1ccccc1)(c1ccccc1)c1ccccc1 (centres undefined) | 30.6 | 27.8 | > 55.1 | 26.8 | > 100 | > 67.2 µM | 25.5 | 23.7 |  |  | 30.1 |  |  |  |  |  |  |  |  | 
19 | CCCC/C(=C\C1=C(C)C(=O)C(OC)=C(OC)C1=O)C(=O)O | > 100 | > 100 | > 100 | > 100 | > 100 |  | 86.7 | > 100 | > 100 | > 100 | > 100 | > 100 | > 100 | > 100 | > 100 | 50.1 | 23.5 | > 100 | 66.3 | 
20 | CCOC(=O)NC(=O)c1cn(C2CCCCC2)c(=O)[nH]c1=O | > 100 | > 100 | > 100 | > 100 | > 100 | > 100 µM | > 100 |  |  |  | > 100 |  |  |  |  |  |  |  |  | 
21 | CC1=NN(C(=O)CC(=O)Nc2ccccc2F)C(=O)C1N=Nc1ccccc1[N+](=O)[O-] (centres undefined) | > 100 | > 100 |  | > 100 | > 100 | > 100 µM |  |  |  |  | > 100 |  |  |  |  |  |  |  |  | 
